Laboratory results as given in patent US11466066B2, “Variants of human BMP7 protein” (ELI LILLY AND COMPANY, priority 2017, dated 2022).
Marks after values point to notes of the source that are not given here.

Experiments:
Format in all cases: cell-based
[1] = test system: MFc7 mouse renal myofibroblasts; assay: Alkaline phosphatase stimulation in MFc7 cells; conditions: 1 μg/ml pro-BMP7, 1 μM ATRA, 48 hours
Procedure: (§1) 3T3-L1 fibroblasts and MFc7 mouse renal myofibroblasts may be grown essentially as described in Example 2 above. After 48 hours the cells may be washed with PBS prior to the addition of either DMEM/2% dialyzed FBS or OPTI-MEM/2% dialyzed FBS medium containing control vehicle, 1 μg/ml human proBMP7 protein, 1 μM ATRA or a combination of both human BMP7 protein (1 μg/ml) and ATRA (1 μM) may be added for 48 hours. After treatment the cells may be rinsed with PBS and stored at −80° C. for approximately 20 minutes. The cells may be thawed at 37° C. for 30 minutes and 100 μl of PNPP may be added to every well. The plate may be incubated at 37° C. for 1 hour. The absorbance at 405 nm may be read on a plate reader.

[2] = test system: human articular osteoarthritic (OA) chondrocytes; assay: Proteoglycan synthesis (35S incorporation); conditions: 7 days
Text: Proteoglycan synthesis in human articular osteoarthritic (OA) chondrocytes is an n vitro model for chondrocyte activity. The effect of human mature BMP7 protein variants may also be evaluated on proteoglycan synthesis m human articular OA chondrocytes in vitro and compared to wild type human mature pro-BMP7. The proteoglycan synthesis may be measured using ^35S incorporation. Arthritic human knee cartilage is obtained from donors at surgery. The cartilage pieces may be finely chopped and chondrocytes may be isolated from the associated matrix by enzymatic digestions. The cartilage may be first digested with 1 mg/ml pronase in DMEM/PRF (phenol red free) media with 5% Fe supplemented calf serum (FCS) and 2% penicillin-streptomycin-antimycotic for 60 minutes followed by overnight digestion with 1 mg/ml collagenase II in DMEM/PRF media with 5% FCS) and 2% penicillin-streptomycin-antimycotic at 37° C. The cells may be washed with DMEM/F-12 media and then resuspended in DMEM/F-12 with 5% FCS and counted with a Coulter counter. The cells may be plated at a density of 30,000 cells/well in 96-well collagen coated CytoStar T plate in growth media containing DMEM, 5% FCS. ITS (insulin, transferin, selenium) and 1% penicillin-streptomycin-antimycotic. After 24 hours, the media may be replaced with 100 μl of growth media containing 10 μCi/ml (1 μCi/well) of ^35S and treated with wild type human pro-BMP7 or a human pro-BMP7 protein variants at various doses. Then the cells may be incubated for approximately 7 days at 37° C. with 5% CO2. At the end of the treatment period the media may be removed, replaced with phosphate buffered saline and ^35S incorporation is counted using a Wallac 1450 MicroBeta TriLux Liquid Scintillation Counter & Luminometer.

3T3-L1 fibroblasts = assay: Alkaline phosphatase stimulation in 3T3-L1 cells; conditions: 1 μg/ml pro-BMP7, 1 μM ATRA, 48 hours
Procedure: as §1

**Q.** What does the source list for “Wild type human pro-BMP7: homodimers of wild type human mature BMP7 in a non-covalent complex with wild type human pro-domain [reference compound]”?
**A.** fold change in alkaline phosphatase stimulation relative to control vehicle treated cells [1]: 21 fold; Proteoglycan Synthesis (35S incorporation) ([2]; Treatment (ng) 0.1): 679 ± 120 CPMs; Proteoglycan Synthesis (35S incorporation) ([2]; Treatment (ng) 0.4): 724 ± 120 CPMs; Proteoglycan Synthesis (35S incorporation) ([2]; Treatment (ng) 1.2): 679 ± 120 CPMs; Proteoglycan Synthesis (35S incorporation) ([2]; Treatment (ng) 3.7): 666 ± 130 CPMs; Proteoglycan Synthesis (35S incorporation) ([2]; Treatment (ng) 11): 723 ± 72 CPMs; Proteoglycan Synthesis (35S incorporation) ([2]; Treatment (ng) 33): 799 ± 65 CPMs; Proteoglycan Synthesis (35S incorporation) ([2]; Treatment (ng) 100): 1500 ± 309 CPMs; Proteoglycan Synthesis (35S incorporation) ([2]; Treatment (ng) 300): 3325 ± 237^a CPMs; fold change in alkaline phosphatase stimulation relative to control vehicle treated cells (3T3-L1 fibroblasts): 1.2 fold
